Source: patent US20090209536A1, “AMINOQUINAZOLINE CANNABINOID RECEPTOR MODULATORS FOR TREATMENT OF DISEASE” (KALYPSYS, INC., priority 2007, published 2009)
Read-outs that look alike come from different tables or passages of the source.

Assays:
[1] = biological target: T1, human cannabinoid receptor type 1 (Homo sapiens, UniProt P21554); experiment: Human CB1 Radioligand Binding Assay (basis of selectivity, CB2 vs. CB1); settings: CB1: HEK 293 EBNA cells expressing human CB1; CB2: CHO CB2 membranes
T1 construct: purchased Perkin Elmer RBHCB1M; host or cells: HEK 293 EBNA cells
T1 sequence (P21554 whole entry): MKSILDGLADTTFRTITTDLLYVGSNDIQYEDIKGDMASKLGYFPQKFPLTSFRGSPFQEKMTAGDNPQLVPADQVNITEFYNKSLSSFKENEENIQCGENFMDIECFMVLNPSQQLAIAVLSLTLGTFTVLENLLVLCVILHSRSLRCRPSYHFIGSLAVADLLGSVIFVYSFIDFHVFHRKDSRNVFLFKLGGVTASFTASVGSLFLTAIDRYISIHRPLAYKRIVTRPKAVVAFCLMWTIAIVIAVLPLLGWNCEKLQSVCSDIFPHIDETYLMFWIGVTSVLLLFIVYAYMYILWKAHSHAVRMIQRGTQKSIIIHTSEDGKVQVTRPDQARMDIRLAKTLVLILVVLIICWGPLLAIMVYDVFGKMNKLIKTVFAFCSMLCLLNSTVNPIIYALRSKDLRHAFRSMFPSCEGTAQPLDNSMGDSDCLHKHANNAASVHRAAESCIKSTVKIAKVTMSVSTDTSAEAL
Experimental: 2. Human CB1 Radioligand Binding Assay
The incubation buffer was composed of 50 mM Tris-HCl pH 7.4, 2.5 mM EDTA, 5 mM MgCl2, 5.0 mg/ml fatty acid free BSA and the wash buffer was composed of 50 mM Tris-HCl pH 7.4, 2.5 mM EDTA, 5 mM MgCl2, 0.5 mg/ml fatty acid free BSA.

[2] = biological target: T2, human cannabinoid receptor type 2 (Homo sapiens, UniProt P34972); experiment: Human CB2 Radioligand Binding Assay; settings: membranes from stably transfected CHO CB2 cells
T2 construct: expressed in transfected cells; membrane preparation
T2 sequence (P34972 whole entry): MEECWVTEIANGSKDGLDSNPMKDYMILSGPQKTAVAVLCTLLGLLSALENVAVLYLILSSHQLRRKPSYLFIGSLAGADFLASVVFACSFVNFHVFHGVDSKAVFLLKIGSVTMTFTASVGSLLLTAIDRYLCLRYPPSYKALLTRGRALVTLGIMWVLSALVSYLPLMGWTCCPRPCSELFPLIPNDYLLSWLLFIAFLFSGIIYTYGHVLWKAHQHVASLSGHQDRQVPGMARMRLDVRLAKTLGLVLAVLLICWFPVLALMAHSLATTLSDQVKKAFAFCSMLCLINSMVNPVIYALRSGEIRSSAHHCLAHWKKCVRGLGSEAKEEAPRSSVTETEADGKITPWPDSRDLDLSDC
Experimental: 1. Human CB2 Radioligand Binding Assay
This receptor binding filtration assay measures the receptor-ligand interactions of compounds by measuring ability to compete with a radiolabeled control ligand. Reactions were performed in 96 deep-well plate (Costar 3961) with a final volume of 600 ul. Compounds were added to each well either in single point (10 uM final) or dose-response. Compounds were delivered in DMSO or further diluted in incubation buffer to a final assay DMSO concentration of 1%. Incubation buffer (50 mM Tris-HCl pH 7.4, 2.5 mM EGTA, 5 mM MgCl2, 5.0 mg/ml fatty acid free BSA) was added to each well. Following buffer addition, [^3H] CP-55,940 was added. Tritiated CP-55,940 (Perkin Elmer) was used at the Kd determined from prior saturation binding experiments conducted on each lot of membranes. Membrane preparations from stably transfected CHO CB2 cells were added and the reaction was incubated for 90 minutes at 30° C. Unifilter GF/C filtration plates (Perkin Elmer) were pre-wet with 0.05% polyethylenimine. Samples were transferred to Unifilter plates and separation of unbound radioligand was achieved using a vacuum manifold (Millipore). Following thorough washing with 5 ml/well ice-cold wash buffer (50 mM Tris-HCl pH 7.4, 2.5 mM EGTA, 5 mM MgCl2, 0.5 mg/ml fatty acid free BSA), filterplates were dried completely. Betaplate Scint Scintillation cocktail (25 ul, Perkin Elmer) was applied and plates were read using Microbeta Trilux (Wallac). Data analysis was performed in Spotfire. Activity of the positive control (100 nM CP-55,940) was set as 100% efficacy.
Stable recombinant Human CB2-CHO cell membranes were prepared as follows: Chinese Hamster Ovarian (CHO) cells stably expressing human cannabinoid receptor type 2 were grown to 90% confluence in 15×100 mm culture dishes under puromycin selection (5 ug/ml) Cells were harvested from culture flasks using a cell scraper, were washed once with cold phosphate-buffered saline (calcium and magnesium free) and pelleted by centrifugation at 400 g for 5 min at 4° C. Cell pellet was washed once with cold phosphate-buffered saline and centrifuged again at 400×g for 5 min at 4° C. The pellet was suspended in ice-cold lysis buffer (10 mM Tris-HCl, 0.1 mM EDTA, containing […], pH 7.5) and homogenized in a chilled 7 ml glass dounce homogenizer using 50 strokes. The homogenate was centrifuged at 400 g for 15 min at 4° C. The cloudy supernatant was collected and centrifuged at 41000 g for 30 min at 4° C. The resulting pellet was washed with ice-cold sucrose-free lysis buffer and centrifuged again at 41000 g for 30 min at 4° C. The membrane pellet was suspended in sucrose-free storage buffer (10 mm Tris-HCl, 0.1 mM EDTA, pH 7.5) to a concentration of 2-3 mg protein/ml. Aliquots were flash frozen in liquid nitrogen and stored at −80° C. Concentration was determined using Dc protein assay kit (Bio-Rad).

[3] = competition with [3H] CP-55,940, read-out: CB2 Ligand Binding Asssay EC50

SMILES	Selectivity, CB2 vs. CB1 [1]	EC50 [2, 3]	EC50 ([2]; CB2 Ligand Binding Asssay EC50, competition with [3H] CP-55,940)
Clc1ccccc1-c1nc(N2CCCC2)c2ccccc2n1 [Example 53, 2-(2-Chlorophenyl)-4-(pyrrolidin-1-yl)quinazoline]	+ (+ indicates > 10−fold)	> 1000 nM	
Clc1ccccc1-c1nc(N2CCCCC2)c2ccccc2n1 [Example 54, 2-(2-Chlorophenyl)-4-(piperidin-1-yl)quinazoline]	+ (+ indicates > 10−fold)	< 1000 nM	
CN(Cc1ccccc1)c1nc(-c2ccccc2Cl)nc2ccccc12 [Example 55, N-Benzyl-2-(2-chlorophenyl)-N-methylquinazolin-4-amine]	− (− indicates ≦ 10−fold)	< 1000 nM	
Clc1ccccc1-c1nc(NCC2CC2)c2ccccc2n1 [Example 56, 2-(2-Chlorophenyl)-N-(cyclopropylmethyl)quinazolin-4-amine]	− (− indicates ≦ 10−fold)	> 1000 nM	
CN1CCN(c2nc(-c3ccccc3Cl)nc3ccccc23)CC1 [Example 57, 2-(2-Chlorophenyl)-4-(4-methylpiperazin-1-yl)quinazoline]	+ (+ indicates > 10−fold)	< 1000 nM	
CC1CCN(c2nc(-c3ccccc3Cl)nc3ccccc23)CC1 [Example 58, 2-(2-Chlorophenyl)-4-(4-methylpiperidin-1-yl)quinazoline]	− (− indicates ≦ 10−fold)	< 1000 nM	
CC1CCCCN1c1nc(-c2ccccc2Cl)nc2ccccc12 (stereo not drawn) [Example 59, 2-(2-Chlorophenyl)-4-(2-methylpiperidin-1-yl)quinazoline]	− (− indicates ≦ 10−fold)	< 1000 nM	
FC(F)(F)C1CCN(c2nc(-c3ccccc3Cl)nc3ccccc23)CC1 [Example 60, 2-(2-Chlorophenyl)-4-(4-(trifluoromethyl)piperidin-1-yl)quinazoline]	− (− indicates ≦ 10−fold)	< 1000 nM	
Clc1ccccc1-c1nc(N2CCc3ccccc3C2)c2ccccc2n1 [Example 61, 2-(2-Chlorophenyl)-4-(3,4-dihydroisoquinolin-2(1H)-yl)quinazoline]	− (− indicates ≦ 10−fold)	< 1000 nM	
CCOC(=O)N1CCN(c2nc(-c3ccccc3Cl)nc3ccccc23)CC1 [Example 62, Ethyl 4-(2-(2-Chlorophenyl)quinazolin-4-yl)piperazine-1-carboxylate]	+ (+ indicates > 10−fold)	< 1000 nM	
CN(c1nc(-c2ccccc2Cl)nc2ccccc12)C1CCCCC1 [Example 63, 2-(2-Chlorophenyl)-N-cyclohexyl-N-methylquinazolin-4-amine]	− (− indicates ≦ 10−fold)	< 1000 nM	
CCCCN(C)c1nc(-c2ccccc2Cl)nc2ccccc12 [Example 64, N-Butyl-2-(2-chlorophenyl)-N-methylquinazolin-4-amine]	− (− indicates ≦ 10−fold)	< 1000 nM	
O=C1CCN(c2nc(-c3ccccc3Cl)nc3ccccc23)CC1 [Example 65, 1-(2-(2-Chlorophenyl)quinazolin-4-yl)piperidin-4-one]	− (− indicates ≦ 10−fold)	< 1000 nM	
OC1(c2ccc(Cl)cc2)CCN(c2nc(-c3ccccc3Cl)nc3ccccc23)CC1 [Example 66, 4-(4-Chlorophenyl)-1-[2-(2-chlorophenyl)quinazolin-4-yl]piperidin-4-ol]	− (− indicates ≦ 10−fold)	< 1000 nM	
Cc1ccc(Cl)cc1N1CCN(c2nc(-c3ccccc3Cl)nc3ccccc23)CC1 [Example 67, 4-[4-(5-Chloro-2-methylphenyl)piperazin-1-yl]-2-(2-chlorophenyl) quinazoline]	− (− indicates ≦ 10−fold)	< 1000 nM	
Clc1ccccc1-c1nc(N2CCSCC2)c2ccccc2n1 [Example 68, 2-(2-Chlorophenyl)-4-thiomorpholin-4-ylquinazoline]	− (− indicates ≦ 10−fold)	< 1000 nM	
CC(C)(C)c1ccc(Nc2nc(-c3ccccc3Cl)nc3ccccc23)cc1 [Example 69, (4-tert-Butylphenyl)-[2-(2-chlorophenyl)quinazolin-4-yl]amine]	− (− indicates ≦ 10−fold)	> 1000 nM	
O=C1CCCN1c1nc(-c2ccccc2Cl)nc2ccccc12 [Example 70, 1-(2-(2-Chlorophenyl)quinazolin-4-yl)pyrrolidin-2-one]	− (− indicates ≦ 10−fold)	> 1000 nM	
O=C1CNCCN1c1nc(-c2ccccc2Cl)nc2ccccc12 [Example 71, 1-(2-(2-Chlorophenyl)quinazolin-4-yl)piperazin-2-one]	− (− indicates ≦ 10−fold)	> 1000 nM	
O=C1CN(c2nc(-c3ccccc3Cl)nc3ccccc23)CCN1 [Example 72, 4-(2-(2-Chlorophenyl)quinazolin-4-yl)piperazin-2-one]	− (− indicates ≦ 10−fold)	> 1000 nM	
CCN1CCN(c2nc(-c3ccccc3Cl)nc3ccccc23)C(=O)C1 [Example 73, 1-(2-(2-Chlorophenyl)quinazolin-4-yl)-4-ethylpiperazin-2-one]	− (− indicates ≦ 10−fold)	> 1000 nM	
CN1CCN(c2nc(-c3ccccc3Cl)nc3ccccc23)C(=O)C1 [Example 74, 1-(2-(2-Chlorophenyl)quinazolin-4-yl)-4-methylpiperazin-2-one]	− (− indicates ≦ 10−fold)	> 1000 nM	
CC(C)(C)OC(=O)N1CCN(c2nc(-c3ccccc3Cl)nc3ccccc23)C(=O)C1 [Example 75, tert-Butyl 4-(2-(2-Chlorophenyl)quinazolin-4-yl)-3-oxopiperazine-1-carboxylate]	− (− indicates ≦ 10−fold)		> 1000 nM
CN1CCN(c2nc(-c3ccccc3Cl)nc3ccccc23)CC1=O [Example 76, 4-(2-(2-Chlorophenyl)quinazolin-4-yl)-1-methylpiperazin-2-one]	− (− indicates ≦ 10−fold)	> 1000 nM	
C[C@@H]1CN(c2nc(-c3ccccc3Cl)nc3ccccc23)C[C@H](C)N1 [Example 77, 2-(2-Chlorophenyl)-4-((3S,5R)-3,5-dimethylpiperazin-1-yl)quinazoline]	− (− indicates ≦ 10−fold)	> 1000 nM	
C[C@@H]1CN(c2nc(-c3ccccc3Cl)nc3ccccc23)C[C@H](C)N1C [Example 78, 2-(2-Chlorophenyl)-4-((3S,5R)-3,4,5-trimethylpiperazin-1-yl)quinazoline]	− (− indicates ≦ 10−fold)	< 1000 nM	
CCCN1[C@H](C)CN(c2nc(-c3ccccc3Cl)nc3ccccc23)C[C@@H]1C [Example 79, 2-(2-Chlorophenyl)-4-((3S,5R)-3,5-dimethyl-4-propylpiperazin-1-yl)quinazoline]	− (− indicates ≦ 10−fold)	< 1000 nM	
CCN1[C@H](C)CN(c2nc(-c3ccccc3Cl)nc3ccccc23)C[C@@H]1C [Example 80, 2-(2-Chlorophenyl)-4-((3S,5R)-4-ethyl-3,5-dimethylpiperazin-1-yl)quinazoline]	− (− indicates ≦ 10−fold)	< 1000 nM	
CN(c1ccc(C(C)(C)C)cc1)c1nc(-c2ccccc2Cl)nc2ccccc12 [Example 81, (4-tert-Butylphenyl)-[2-(2-chlorophenyl)quinazolin-4-yl]methylamine]	− (− indicates ≦ 10−fold)	> 1000 nM	
Clc1ccccc1-c1nc(N2CCNCC2)c2ccccc2n1 [Example 82, 2-(2-Chlorophenyl)-4-piperazin-1-ylquinazoline]	− (− indicates ≦ 10−fold)	> 1000 nM	
